Seven compounds from ChEMBL document CHEMBL4387718, “Design, synthesis of orally bioavailable novel anaplastic lymphoma kinase (ALK) inhibitor diphenylaminopyrimidine analogs and efficacy study on NCI-H2228 xenografts mice model” (Bioorg Med Chem Lett, 2019) can be followed below.

The structures appear in SMILES notation.

Data set [1] deals with NCI-H2228. The data set can be described thus: Growth inhibition of human NCI-H2228 cells. Format: functional, cell-based.
A further data set concerns NCI-H3122. Description: Growth inhibition of human NCI-H3122 cells. Format: functional, cell-based.
Data set [2] relates to NCI-H2228. Description: Antitumor activity against human NCI-H2228 cells harboring EML4-fused ALK variant xenografted in SCID Beige nude mouse assessed as tumor growth inhibition at 10 mg/kg, po administered once daily for 14 days measured twice per week for 21 days during compound dosing relative to control. Conditions: read-out: TGI. Format: functional. (In general: A xenograft is tissue or cells of one species grown in another, often human tumour cells in immunodeficient mice.)

For data set [3], the target named is ALK tyrosine kinase receptor (Homo sapiens, UniProt Q9UM73). Description: Inhibition of wild-type ALK (unknown origin).
Chain of ALK tyrosine kinase receptor (Homo sapiens, UniProt Q9UM73) (Q9UM73 whole entry): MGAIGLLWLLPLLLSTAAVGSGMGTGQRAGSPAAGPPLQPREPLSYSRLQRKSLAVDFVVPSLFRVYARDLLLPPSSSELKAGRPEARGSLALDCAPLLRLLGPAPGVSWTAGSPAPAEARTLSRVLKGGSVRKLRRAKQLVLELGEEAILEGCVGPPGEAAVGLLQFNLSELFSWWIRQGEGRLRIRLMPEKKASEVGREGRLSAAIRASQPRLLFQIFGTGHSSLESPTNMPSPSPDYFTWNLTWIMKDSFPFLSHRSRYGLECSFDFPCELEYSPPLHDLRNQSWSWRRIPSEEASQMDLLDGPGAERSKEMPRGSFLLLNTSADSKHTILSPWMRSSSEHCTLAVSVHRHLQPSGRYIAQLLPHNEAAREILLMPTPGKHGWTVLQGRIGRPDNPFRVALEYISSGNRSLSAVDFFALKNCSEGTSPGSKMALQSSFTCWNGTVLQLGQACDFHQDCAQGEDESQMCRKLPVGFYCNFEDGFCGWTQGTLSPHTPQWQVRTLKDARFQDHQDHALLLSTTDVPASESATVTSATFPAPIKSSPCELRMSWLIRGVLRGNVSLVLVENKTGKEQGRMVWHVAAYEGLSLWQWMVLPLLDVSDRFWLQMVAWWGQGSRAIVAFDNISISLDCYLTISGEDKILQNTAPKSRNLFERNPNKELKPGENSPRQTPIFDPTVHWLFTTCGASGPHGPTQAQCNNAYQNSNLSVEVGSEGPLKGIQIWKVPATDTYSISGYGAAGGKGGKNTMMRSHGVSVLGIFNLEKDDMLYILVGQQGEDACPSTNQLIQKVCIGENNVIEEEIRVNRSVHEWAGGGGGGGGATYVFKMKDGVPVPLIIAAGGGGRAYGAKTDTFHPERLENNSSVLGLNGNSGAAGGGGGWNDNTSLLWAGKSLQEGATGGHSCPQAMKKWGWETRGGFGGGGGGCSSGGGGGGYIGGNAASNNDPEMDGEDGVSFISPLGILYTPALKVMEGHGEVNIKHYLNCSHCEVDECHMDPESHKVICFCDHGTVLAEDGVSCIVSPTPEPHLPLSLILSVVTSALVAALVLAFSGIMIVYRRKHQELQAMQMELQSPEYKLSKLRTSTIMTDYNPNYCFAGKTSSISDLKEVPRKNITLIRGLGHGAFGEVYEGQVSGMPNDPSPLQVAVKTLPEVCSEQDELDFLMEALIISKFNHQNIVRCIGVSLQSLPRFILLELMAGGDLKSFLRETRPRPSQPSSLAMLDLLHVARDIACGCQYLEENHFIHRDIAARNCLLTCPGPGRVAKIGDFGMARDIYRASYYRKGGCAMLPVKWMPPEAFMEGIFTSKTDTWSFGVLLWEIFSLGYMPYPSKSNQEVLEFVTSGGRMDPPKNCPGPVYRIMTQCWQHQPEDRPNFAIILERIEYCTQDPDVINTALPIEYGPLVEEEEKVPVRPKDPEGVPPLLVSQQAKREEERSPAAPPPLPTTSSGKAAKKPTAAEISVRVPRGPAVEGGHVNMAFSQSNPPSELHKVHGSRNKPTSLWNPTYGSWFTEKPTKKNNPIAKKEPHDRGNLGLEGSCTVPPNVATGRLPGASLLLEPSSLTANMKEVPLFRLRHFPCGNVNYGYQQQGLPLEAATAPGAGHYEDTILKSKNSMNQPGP
Data set [4] concerns the target ALK tyrosine kinase receptor (Homo sapiens, UniProt Q9UM73, L1196M). The data set can be described thus: Inhibition of ALK L1196M mutant (unknown origin).
The target in data set [5] is ALK tyrosine kinase receptor (Homo sapiens, UniProt Q9UM73, F1174L). The data set can be described thus: Inhibition of ALK F1174L mutant (unknown origin).
Chain of ALK tyrosine kinase receptor (Homo sapiens, UniProt Q9UM73, F1174L) (Q9UM73 19-1620 F1174L limits assumed): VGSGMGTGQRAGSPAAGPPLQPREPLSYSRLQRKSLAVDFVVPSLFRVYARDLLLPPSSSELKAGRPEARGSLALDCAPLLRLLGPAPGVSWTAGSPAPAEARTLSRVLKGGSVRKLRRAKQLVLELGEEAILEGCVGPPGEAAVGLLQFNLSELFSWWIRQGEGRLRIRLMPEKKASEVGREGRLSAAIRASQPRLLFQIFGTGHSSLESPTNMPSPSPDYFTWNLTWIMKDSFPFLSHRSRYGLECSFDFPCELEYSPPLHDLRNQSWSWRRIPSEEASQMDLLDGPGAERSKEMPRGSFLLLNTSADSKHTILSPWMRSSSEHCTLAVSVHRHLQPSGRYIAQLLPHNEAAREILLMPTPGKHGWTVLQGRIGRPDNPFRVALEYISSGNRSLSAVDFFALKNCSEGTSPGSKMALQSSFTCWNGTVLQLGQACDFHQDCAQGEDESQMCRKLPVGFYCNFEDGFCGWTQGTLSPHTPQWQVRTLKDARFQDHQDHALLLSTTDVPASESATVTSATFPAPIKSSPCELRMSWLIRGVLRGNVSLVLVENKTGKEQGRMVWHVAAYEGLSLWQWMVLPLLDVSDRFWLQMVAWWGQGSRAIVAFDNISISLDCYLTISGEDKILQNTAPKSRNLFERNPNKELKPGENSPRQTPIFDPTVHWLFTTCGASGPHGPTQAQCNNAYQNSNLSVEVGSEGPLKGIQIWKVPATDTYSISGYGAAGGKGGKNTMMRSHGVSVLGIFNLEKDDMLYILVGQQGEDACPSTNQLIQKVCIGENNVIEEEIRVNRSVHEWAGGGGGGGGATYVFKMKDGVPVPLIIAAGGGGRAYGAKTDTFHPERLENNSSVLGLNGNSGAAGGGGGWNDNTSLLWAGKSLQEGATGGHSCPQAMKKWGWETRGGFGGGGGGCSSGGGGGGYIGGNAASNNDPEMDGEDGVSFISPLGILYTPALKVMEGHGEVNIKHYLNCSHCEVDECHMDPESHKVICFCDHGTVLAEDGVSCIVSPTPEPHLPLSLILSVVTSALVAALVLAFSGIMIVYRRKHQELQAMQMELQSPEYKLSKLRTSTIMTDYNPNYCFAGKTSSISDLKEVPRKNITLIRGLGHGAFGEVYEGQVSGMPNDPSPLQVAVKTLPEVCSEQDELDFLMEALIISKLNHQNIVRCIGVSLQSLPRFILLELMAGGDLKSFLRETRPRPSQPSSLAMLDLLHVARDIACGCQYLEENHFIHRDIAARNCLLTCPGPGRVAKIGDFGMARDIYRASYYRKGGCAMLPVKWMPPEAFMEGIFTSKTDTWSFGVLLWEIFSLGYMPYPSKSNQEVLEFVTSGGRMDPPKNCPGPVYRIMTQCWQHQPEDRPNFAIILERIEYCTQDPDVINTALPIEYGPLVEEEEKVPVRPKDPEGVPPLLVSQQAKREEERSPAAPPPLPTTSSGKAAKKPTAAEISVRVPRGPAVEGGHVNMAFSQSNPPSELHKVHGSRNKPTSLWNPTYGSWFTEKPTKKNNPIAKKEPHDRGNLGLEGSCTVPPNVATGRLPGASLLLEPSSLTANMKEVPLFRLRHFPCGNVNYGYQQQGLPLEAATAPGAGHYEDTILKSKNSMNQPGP
A short description of data set [6]: Toxicity in SCID Beige nude mouse xenografted with human NCI-H2228 cells harboring EML4-fused ALK variant assessed as change in body weight at 30 mg/kg, po administered once daily for 14 days and measured twice per week for 14 days during compound dosing. It is filed as organism-based. The note with it: in vivo, 336 h.
For data set [7], the system named is NCI-H2228. Description: Antitumor activity against human NCI-H2228 cells harboring EML4-fused ALK variant xenografted in SCID Beige nude mouse assessed as tumor growth inhibition at 30 mg/kg, po administered once daily for 14 days measured twice per week for 21 days during compound dosing relative to control. Format: functional. The note with it: read-out: TGI.

Data set [8] in a line: Oral bioavailability in SCID Beige nude mouse xenografted with human NCI-H2228 cells harboring EML4-fused ALK variant at 3 to 30 mg/kg administered once daily for 14 days relative to control. It is filed as ADME, organism-based. The note with it: in vivo.
A short description of data set [9]: Tmax in SCID Beige nude mouse xenografted with human NCI-H2228 cells harboring EML4-fused ALK variant at 3 to 30 mg/kg, po administered once daily for 14 days. Format: ADME, organism-based. Conditions: in vivo.
A short description of data set [10]: Cmax in SCID Beige nude mouse xenografted with human NCI-H2228 cells harboring EML4-fused ALK variant at 3 to 30 mg/kg, po administered once daily for 14 days. The note with it: in vivo. It is filed as ADME, organism-based.
Data set [11] is described as follows: AUC (0 to t) in SCID Beige nude mouse xenografted with human NCI-H2228 cells harboring EML4-fused ALK variant at 3 to 30 mg/kg, po administered once daily for 14 days. Format: ADME, organism-based. Conditions: in vivo, 336 h.
Data set [12] relates to NCI-H2228. Description: Antitumor activity against human NCI-H2228 cells harboring EML4-fused ALK variant xenografted in po dosed SCID Beige nude mouse assessed as tumor growth inhibition administered once daily for 14 days measured twice a week for 21 days during compound dosing. Format: functional, organism-based. Conditions: tested as the 2H-labelled form.

Chain of ALK tyrosine kinase receptor (Homo sapiens, UniProt Q9UM73, L1196M) (Q9UM73 19-1620 L1196M limits assumed): as the sequence (Q9UM73 19-1620 F1174L limits assumed) above, with L1156F, L1178M counted along it

Regarding `Cc1cc(Nc2ncc(Cl)c(Nc3ccccc3S(=O)(=O)C(C)C)n2)c(OC(C)C)cc1C1CCNCC1` [CERITINIB], the IC50 (as a rule, the concentration at which inhibition is half-maximal) is 97 nM in the data set on NCI-H2228 [1] and 27.2 nM in the data set on NCI-H3122. In the data set with NCI-H2228 [2], the inhibition in vivo at 10 mg/kg came out at 26%.

For the compound `[2H]c1c(C)c(C2CCNCC2)cc(OC(C)C)c1Nc1ncc(Cl)c(Nc2ccccc2S(=O)(=O)C(C)C)n1`, the IC50 in the data set with NCI-H2228 [1] stood at 98.5 nM; in the data set with NCI-H3122 it was 24.7 nM.

In the case of `[2H]c1ccc(Nc2nc(Nc3cc(C)c(C4CCNCC4)cc3OC(C)C)ncc2Cl)c(S(=O)(=O)C(C)C)c1`, the figures for the IC50 in the data set on NCI-H2228 [1] and in the data set on NCI-H3122 were 97 nM and 28.5 nM, respectively.

Turning to `[2H]C([2H])([2H])C([2H])(Oc1cc(C2CCNCC2)c(C)cc1Nc1ncc(Cl)c(Nc2ccccc2S(=O)(=O)C(C)C)n1)C([2H])([2H])[2H]`, the IC50 with NCI-H2228 [1] was 111 nM; in the data set with NCI-H3122, 28.4 nM.

As to `[2H]C([2H])([2H])Oc1cc(C2CCNCC2)c(C)cc1Nc1ncc(Cl)c(Nc2ccccc2S(=O)(=O)C(C)C)n1`, the IC50 stood at 41.3 nM with NCI-H2228 [1]; 4 nM in the data set with NCI-H3122; 71 nM in data set [3]; 18.7 nM in [4]; 36.8 nM in data set [5]. Moreover, the Activity entry in [6] is on record as “Non-Toxic”. For the same compound, the inhibition in vivo at 10 mg/kg in the data set on NCI-H2228 [2] came to 53%. Moreover, the inhibition in vivo at 30 mg/kg in the data set with NCI-H2228 [7] came to 77%. The bioavailability – broadly, the share of a dose that reaches the circulation, judged against a reference dose that is usually intravenous – in [8] stood at 60%. Further, the Tmax (commonly the time at which the peak concentration occurs) in data set [9] was 6 to 8 h. Also, in [10], the Cmax (commonly the peak of the concentration-time curve) turned out to be 508 ng/mL. In data set [11], this compound displayed an AUCt of 6980 ng·h/mL.

For the compound `COc1cc(C2CCNCC2)c(C)cc1Nc1ncc(Cl)c(Nc2ccccc2S(=O)(=O)C(C)C)n1`, the TGI result in the data set with NCI-H2228 [12] is “Dose-dependent effect”.

Turning to `[2H]C([2H])([2H])C([2H])([2H])Oc1cc(C2CCNCC2)c(C)cc1Nc1ncc(Cl)c(Nc2ccccc2S(=O)(=O)C(C)C)n1`, the IC50 with NCI-H2228 [1] came to 45.5 nM; with NCI-H3122 it was 6 nM; in data set [3] it was 106 nM; in [4], 37 nM; in data set [5] it was 51.6 nM.
